The record followed here is US20140350014A1, “COMPOUNDS FOR INHIBITING THE INTERACTION OF BCL2 WITH BINDING PARTNERS” (NOVARTIS AG, priority 2011, published 2014).

Molecules are shown by their SMILES. Some results are limits rather than exact numbers.

BCL-2 binding to BAD peptide, sequence (P10415 whole entry): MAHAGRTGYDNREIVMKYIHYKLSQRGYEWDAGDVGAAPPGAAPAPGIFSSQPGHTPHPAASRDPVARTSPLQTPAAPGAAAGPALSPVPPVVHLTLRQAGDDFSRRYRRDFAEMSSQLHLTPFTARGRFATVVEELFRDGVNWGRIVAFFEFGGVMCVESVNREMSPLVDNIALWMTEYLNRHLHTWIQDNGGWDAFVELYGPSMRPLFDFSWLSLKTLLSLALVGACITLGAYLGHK

The first assay addresses BCL-2 binding to BAD peptide (Homo sapiens, UniProt P10415). Briefly: BCL2 SPR solution inhibition assay, BAD peptide surface (Biacore A100). To be noted: read-out: BCL2_SPR IC50 BAD. An excerpt:
(§1) 33The present method includes utility of a Surface plasmon resonance (SPR)-based biosensor (Bia34core™′ GE Healthcare, Uppsala, Sweden) to characterize BCL-2 inhibitors. 35
(§2) 36Biacore™ utilizes the phenomenon of surface plasmon resonance (SPR) to detect and measure 37binding interactions. In a typical Biacore experiment, one of the interacting molecules (ligand) is i38mmobilized on a flexible dextran matrix while the interacting partner (analyte) is allowed to fl39ow across that surface. A binding interaction results in an increase in mass on the sensor surface 40and a corresponding direct change in the refractive index of the medium in the vicinity of the 41sensor surface. Changes in refractive index or signal are recorded in resonance units (R.U.) Signal 42changes due to association and dissociation of complexes are monitored in a non-invasive manne43r, continuously and in real-time, the results of which are reported in the form of a sensorgram.44
(§3) The SPR assay is con45figured to examine solution inhibition of BCL-2 binding to peptide derivatized sensor surfa46ces to generate IC50 values as a measure of inhibitor potency.
(§4) Biacore™ A100 (GE Healthcare, Uppsala, Sweden) was used to conduct all experiments reported herein. Sensor surface preparation and all interaction analyses experiments were performed at 25° C. Reagents were purchased from GE Healthcare. Running buffer containing 10 mM Hepes, pH7.4, 150 mM sodium chloride, 1.25 mM Dithiothreitol, 3% Dimethyl sulfoxide and 0.05% polysorbate 20 were utilized throughout all analyses.
(§5) Biotinylated BAK, BAD and NOXA peptides were diluted to 10 nM in running buffer and captured onto a sensor surface pre-derivatized with streptavidin (sensor chip SA) to peptide surface densities in the range 50-100 R.U. Peptide captured surfaces were blocked with 500 μM PEO2-Biotin.
(§6) Interaction analyses were performed by first equilibrating each sample within a 6 point three fold compound dilution series in the range 16 μM to […] with 56 nM BCL-2 for one hour during instrument start-up procedures. Protein compound mixtures were then injected over each peptide surface in parallel for 60 seconds at a flow-rate of 30 μL/min. 56 nM BCL-2 control samples were also prepared and run at regular intervals during the assay. Surface regeneration was performed at the end of each analysis cycle by two 30 second injections of 10 mM Glycine, pH 2.5, 1M Sodium Chloride, 0.05% polysorbate 20. Samples and control compound samples were run in duplicate and controls are also run at regular intervals during the assay to monitor surface and assay performance.
(§7) Data analyses are carried out using Biacore™ A100 evaluation software v1.1 to validate assay quality. Binding level report points were used relative to BCL-2 control samples to calculate % inhibition values for each compound protein mixture. […] The range of data shown in table 1 represents the high and low IC50 values obtained from multiple experiments.
A general note: In SPR one partner is held on a chip, and binding of the other changes the refractive index at the surface.
As for `CCCCN(CCCC)C(=O)c1cc(C)n(-c2ccc(-c3ccc(Cl)c(C(N)=O)c3)cc2C(=O)N2Cc3ccccc3C[C@H]2CO)n1` [Example 34], the half-inhibitory concentration (IC50) (as a rule, the concentration at which inhibition is half-maximal) lay within 600 to 623 nM.

`CCCCN(CCCC)C(=O)c1cc(C)n(-c2ccc(-c3ccc(Cl)c(C(=O)NC)c3)cc2C(=O)N2Cc3ccccc3C[C@H]2CO)n1` [Example 35]: the IC50 fell in the range of 515 to 547 nM.

`CCCCN(CCCC)C(=O)c1cc(C)n(-c2ccc(-c3cccc(OC(F)(F)F)c3)cc2C(=O)N2Cc3ccccc3C[C@H]2CO)n1` [Example 36]: the IC50 is 837 to 848 nM.

As for `CCCCN(CCCC)C(=O)c1cc(C)n(-c2ccc(-c3ccc(C(=O)NCC)c(F)c3)cc2C(=O)N2Cc3ccccc3C[C@H]2CO)n1` [Example 37], the IC50 was 312 to 319 nM.

`CCCCN(CCCC)C(=O)c1cc(C)n(-c2ccc(-c3cccc(S(C)(=O)=O)c3)cc2C(=O)N2Cc3ccccc3C[C@H]2CO)n1` [Example 38]: the IC50 fell in the range of 885 to 891 nM.

On to `CCCCN(CCCC)C(=O)c1cc(C)n(-c2ccc(-c3ccc(Cl)c(C(=O)N(C)C)c3)cc2C(=O)N2Cc3ccccc3C[C@H]2CO)n1` [Example 39], for which the IC50 was 727 to 738 nM.

Take `CCCCN(CCCC)C(=O)c1cc(C)n(-c2ccc(-c3ccccc3C#N)cc2C(=O)N2Cc3ccccc3C[C@H]2CO)n1` [Example 40]: the IC50 was in the range of 6490 to 7830 nM.

Take `CCCCN(CCCC)C(=O)c1cc(C)n(-c2ccc(-c3c(C)noc3C)cc2C(=O)N2Cc3ccccc3C[C@H]2CO)n1` [Example 41]: the IC50 was in the range of 1930 to 2030 nM.

On to `CCCCN(CCCC)C(=O)c1cc(C)n(-c2ccc(-c3cccc(F)c3Cl)cc2C(=O)N2Cc3ccccc3C[C@H]2CO)n1` [Example 42], for which the IC50 is 7080 to 10200 nM.

With `CCCCN(CCCC)C(=O)c1cc(C)n(-c2ccc(-c3cc(C)cc(C)c3)cc2C(=O)N2Cc3ccccc3C[C@H]2CO)n1` [Example 43], the IC50 lay within 593 to 614 nM.

As for `CCCCN(CCCC)C(=O)c1cc(C)n(-c2ccc(-c3ccc(F)c(F)c3)cc2C(=O)N2Cc3ccccc3C[C@H]2CO)n1` [Example 44], the 50% inhibitory concentration (IC50) was in the range of 2090 to 2180 nM.

Turning to `CCCCN(CCCC)C(=O)c1cc(C)n(-c2ccc(-c3cccc(Cl)c3Cl)cc2C(=O)N2Cc3ccccc3C[C@H]2CO)n1` [Example 45], the IC50 is 7160 to 7600 nM.

With `CCCCN(CCCC)C(=O)c1cc(C)n(-c2ccc(-c3ccc(OC)c4ccccc34)cc2C(=O)N2Cc3ccccc3C[C@H]2CO)n1` [Example 46], the IC50 was over 16000 nM.

`CCCCN(CCCC)C(=O)c1cc(C)n(-c2ccc(-c3cccc(C)c3)cc2C(=O)N2Cc3ccccc3C[C@H]2CO)n1` [Example 47]: the IC50 was 619 to 631 nM.

For the compound `CCCCN(CCCC)C(=O)c1cc(C)n(-c2ccc(-c3ccc(S(=O)(=O)N4CCOCC4)cc3)cc2C(=O)N2Cc3ccccc3C[C@H]2CO)n1` [Example 48], the half-maximal inhibitory concentration (IC50) was in the range of 953 to 964 nM.

Take `CCCCN(CCCC)C(=O)c1cc(C)n(-c2ccc(-c3cccc(OC)c3)cc2C(=O)N2Cc3ccccc3C[C@H]2CO)n1` [Example 49]: the IC50 lay within 896 to 978 nM.

Take `CCCCN(CCCC)C(=O)c1cc(C)n(-c2ccc(-c3ccc(C)c(C)c3)cc2C(=O)N2Cc3ccccc3C[C@H]2CO)n1` [Example 50]: the IC50 was 881 to 933 nM.

In the case of `CCCCN(CCCC)C(=O)c1cc(C)n(-c2ccc(-c3ccc(OCC)nc3)cc2C(=O)N2Cc3ccccc3C[C@H]2CO)n1` [Example 51], the IC50 is 856 to 894 nM.

A further assay deals with BCL-2 binding to BAK peptide (Homo sapiens, UniProt P10415). Description: BCL2 SPR solution inhibition assay, BAK peptide surface (Biacore A100). Conditions: read-out: BCL2_SPR IC50 BAK.
BCL-2 binding to BAK peptide, sequence (P10415 whole entry): as above
Description: as §1, §2, §3, §4, §5, §6, §7
Regarding `CCCCN(CCCC)C(=O)c1cc(C)n(-c2ccc(-c3ccc(Cl)c(C(N)=O)c3)cc2C(=O)N2Cc3ccccc3C[C@H]2CO)n1` [Example 34], the IC50 lay within 426 to 429 nM.

As for `CCCCN(CCCC)C(=O)c1cc(C)n(-c2ccc(-c3ccc(Cl)c(C(=O)NC)c3)cc2C(=O)N2Cc3ccccc3C[C@H]2CO)n1` [Example 35], the IC50 fell in the range of 357 to 366 nM.

With `CCCCN(CCCC)C(=O)c1cc(C)n(-c2ccc(-c3cccc(OC(F)(F)F)c3)cc2C(=O)N2Cc3ccccc3C[C@H]2CO)n1` [Example 36], the IC50 was 741 to 759 nM.

For `CCCCN(CCCC)C(=O)c1cc(C)n(-c2ccc(-c3ccc(C(=O)NCC)c(F)c3)cc2C(=O)N2Cc3ccccc3C[C@H]2CO)n1` [Example 37], the 50% inhibitory concentration (IC50) was in the range of 239 to 240 nM.

Take `CCCCN(CCCC)C(=O)c1cc(C)n(-c2ccc(-c3cccc(S(C)(=O)=O)c3)cc2C(=O)N2Cc3ccccc3C[C@H]2CO)n1` [Example 38]: the IC50 lay in the range of 632 to 656 nM.

With `CCCCN(CCCC)C(=O)c1cc(C)n(-c2ccc(-c3ccc(Cl)c(C(=O)N(C)C)c3)cc2C(=O)N2Cc3ccccc3C[C@H]2CO)n1` [Example 39], the IC50 lay in the range of 617 to 657 nM.

Take `CCCCN(CCCC)C(=O)c1cc(C)n(-c2ccc(-c3ccccc3C#N)cc2C(=O)N2Cc3ccccc3C[C@H]2CO)n1` [Example 40]: the 50% inhibitory concentration (IC50) is 4940 to 5880 nM.

As for `CCCCN(CCCC)C(=O)c1cc(C)n(-c2ccc(-c3c(C)noc3C)cc2C(=O)N2Cc3ccccc3C[C@H]2CO)n1` [Example 41], the IC50 lay in the range of 1800 to 2550 nM.

Consider `CCCCN(CCCC)C(=O)c1cc(C)n(-c2ccc(-c3cccc(F)c3Cl)cc2C(=O)N2Cc3ccccc3C[C@H]2CO)n1` [Example 42], for which the IC50 lay within 6370 to 7210 nM.

As to `CCCCN(CCCC)C(=O)c1cc(C)n(-c2ccc(-c3cc(C)cc(C)c3)cc2C(=O)N2Cc3ccccc3C[C@H]2CO)n1` [Example 43], the half-inhibitory concentration (IC50) was 886 to 905 nM.

With `CCCCN(CCCC)C(=O)c1cc(C)n(-c2ccc(-c3ccc(F)c(F)c3)cc2C(=O)N2Cc3ccccc3C[C@H]2CO)n1` [Example 44], the concentration for half-maximal inhibition (IC50) was in the range of 2500 to 2960 nM.

With `CCCCN(CCCC)C(=O)c1cc(C)n(-c2ccc(-c3cccc(Cl)c3Cl)cc2C(=O)N2Cc3ccccc3C[C@H]2CO)n1` [Example 45], the IC50 was 7410 to 7540 nM.

On to `CCCCN(CCCC)C(=O)c1cc(C)n(-c2ccc(-c3ccc(OC)c4ccccc34)cc2C(=O)N2Cc3ccccc3C[C@H]2CO)n1` [Example 46], for which the half-maximal inhibitory concentration (IC50) is over 16000 nM.

As to `CCCCN(CCCC)C(=O)c1cc(C)n(-c2ccc(-c3cccc(C)c3)cc2C(=O)N2Cc3ccccc3C[C@H]2CO)n1` [Example 47], the half-inhibitory concentration (IC50) lay within 503 to 589 nM.

Consider `CCCCN(CCCC)C(=O)c1cc(C)n(-c2ccc(-c3ccc(S(=O)(=O)N4CCOCC4)cc3)cc2C(=O)N2Cc3ccccc3C[C@H]2CO)n1` [Example 48], for which the IC50 was in the range of 665 to 675 nM.

`CCCCN(CCCC)C(=O)c1cc(C)n(-c2ccc(-c3cccc(OC)c3)cc2C(=O)N2Cc3ccccc3C[C@H]2CO)n1` [Example 49]: the IC50 lay within 626 to 696 nM.

As for `CCCCN(CCCC)C(=O)c1cc(C)n(-c2ccc(-c3ccc(C)c(C)c3)cc2C(=O)N2Cc3ccccc3C[C@H]2CO)n1` [Example 50], the concentration for half-maximal inhibition (IC50) lay within 793 to 883 nM.

For the compound `CCCCN(CCCC)C(=O)c1cc(C)n(-c2ccc(-c3ccc(OCC)nc3)cc2C(=O)N2Cc3ccccc3C[C@H]2CO)n1` [Example 51], the concentration for half-maximal inhibition (IC50) is 656 to 741 nM.
